pIC50: −log10 of the molar value.
Test system: 616215-338-R-J1-PDC spheroids with HUVEC/MSC, viability
Assay: Anticancer human tumor 616215-338-R-J1-PDC patient-derived colon adenocarcinoma cell line growth inhibition [PI3K]
Conditions: for pIC50: curve of first compound; for viability, T/C: stronger effect = lower value
From the text: Combinatorial screen of targeted agents with the PI3K inhibitors inavolisib, alpelisib, duvelisib, and copanlisib in multi-cell type tumor spheroids
A high-throughput screen of multi-cell type tumor spheroids was designed to identify active combinations of targeted small molecules and PI3K pathway inhibitors. Complex spheroids include a stromal component modeled by human endothelial cells (HUVEC) and fibroblasts modeled by human mesenchymal stem cells (MSCs). The concentration ranges selected for each drug and investigational agent were based upon clinically achievable concentrations if the clinical Cmax of the agent was known.
Compounds. The drugs and investigational agents: inavolisib (NSC800729), alpelisib (NSC765974), duvelisib (NSC772469), copanlisib (NSC816437), ipatasertib (NSC767898), afuresertib (NSC778305), talazoparib (NSC767125), sapanisertib (NSC764658), selumetinib (NSC741078), tovorafenib (DAY101, NSC766906), vemurafenib (NSC761431), ravoxertinib (NSC781343), sotorasib (NSC818433), MRTX1133 (NSC 836407), abemaciclib (NSC 768073), palbociclib (NSC758247), venetoclax (NSC 766270), SY5609 (NSC837396), enzalutamide (NSC755605), and darolutamide (NSC825331), were obtained from the National Cancer Institute (NCI) Developmental Therapeutics Program Chemical Repository. The FDA-approved anticancer drug set is available from the NCI Developmental Therapeutics Program. […] The stock solutions were prepared in dimethyl sulfoxide (DMSO, Sigma-Aldrich, St. Louis, MO, cat. D2650) at 800-fold the tested concentration and stored at -70 degrees C prior to their use. All drugs and investigational agents were tested over a range starting from a high concentration at or near the clinical Cmax and decreasing in half-log increments. If the clinical Cmax for an agent had not been determined, the highest concentration tested was 10 microM.
Cell Culture. All cells were maintained in an incubator at 37 degrees C and 5% CO2 with 95% humidity. The PDC lines were cultured according to standard operating procedures established by the NCI PDMR (https://pdmr.cancer.gov/sops/default.htm). All PDCs were thawed and cultured in Matrigel-coated flasks prepared with a working solution of 1X Ham's F-12 nutrient mix, without supplementation (Invitrogen, Waltham, MA, cat. 11765054), 100 U/mL penicillin-streptomycin (Invitrogen, cat. 15140122), and 2.5% Matrigel (Corning Inc., Corning, NY, cat. 354248) for the first three passages. The 354836-022-R-J1-PDC, 475296-252-R-J1-PDC, and 997726-040-R-J2-PDC lines were cultured in 6A media, which includes advanced DMEM/F-12 (Thermo Fisher Scientific, cat. 12634028), 10 mM HEPES (Thermo Fisher Scientific, cat. 15630080), 1X GlutaMAX supplement (Thermo Fisher Scientific, cat. 35050061), 0.1 mg/mL primocin (InvivoGen, San Diego, CA, cat. ant-pm-2), 10% defined fetal bovine serum, heat inactivated (HyClone Laboratories Inc., Logan, UT, cat. SH30070.03HI), 50% L-WRN conditioned media (ATCC, cat. CRL-3276), 1.25 mM N-Acetyl-L-cysteine (Sigma-Aldrich, cat. A9165), 10 mM nicotinamide (Sigma-Aldrich, cat. N0636), 1X B-27 supplement (Thermo Fisher Scientific, cat. 17504044), 1X N-2 supplement (Thermo Fisher Scientific, cat. 17502048), and 10 microM Y-27632 dihydrochloride (Tocris Bioscience, Bristol, United Kingdom, cat. 1254). The 624824-186-R-J2-PDC line was cultured in 6C/Colon 1B media, which includes all 6A media components plus 50 ng/mL human EGF recombinant protein (Thermo Fisher Scientific, cat. PHG0311). […]
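Further: spheroids exposed to agents for seven days before the viability read.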

Structure (SMILES): C#Cc1c(F)ccc2cc(O)cc(-c3ncc4c(N5CC6CCC(C5)N6)nc(OCC56CCCN5CC(F)C6)nc4c3F)c12 (configuration not stated) + Cc1nc(NC(=O)N2CCCC2C(N)=O)sc1-c1ccnc(C(C)(C)C(F)(F)F)c1
- pIC50 (second compound 0.0316 µM): < 5.00
- pIC50 (second compound 0.1 µM): < 5.00
- pIC50 (second compound 0.316 µM): < 5.00
- pIC50 (second compound 1 µM): < 5.00
- pIC50 (second compound 3.16 µM): < 5.00
- pIC50 (second compound 10 µM): 5.04
- viability, T/C (second compound 0.0316 µM, first compound 0.0316 µM): 108%
- viability, T/C (second compound 0.0316 µM, first compound 0.1 µM): 106%
- viability, T/C (second compound 0.0316 µM, first compound 0.316 µM): 102%
- viability, T/C (second compound 0.0316 µM, first compound 1 µM): 93.3%
- viability, T/C (second compound 0.0316 µM, first compound 3.16 µM): 82%
- viability, T/C (second compound 0.0316 µM, first compound 10 µM): 67.6%
- viability, T/C (second compound 0.1 µM, first compound 0.0316 µM): 97.2%
- viability, T/C (second compound 0.1 µM, first compound 0.1 µM): 104%
- viability, T/C (second compound 0.1 µM, first compound 0.316 µM): 100%
- viability, T/C (second compound 0.1 µM, first compound 1 µM): 104%
- viability, T/C (second compound 0.1 µM, first compound 3.16 µM): 96.1%
- viability, T/C (second compound 0.1 µM, first compound 10 µM): 54.5%
- viability, T/C (second compound 0.316 µM, first compound 0.0316 µM): 95.3%
- viability, T/C (second compound 0.316 µM, first compound 0.1 µM): 99.2%
- viability, T/C (second compound 0.316 µM, first compound 0.316 µM): 96.4%
- viability, T/C (second compound 0.316 µM, first compound 1 µM): 84.8%
- viability, T/C (second compound 0.316 µM, first compound 3.16 µM): 86.3%
- viability, T/C (second compound 0.316 µM, first compound 10 µM): 54.9%
- viability, T/C (second compound 1 µM, first compound 0.0316 µM): 110%
- viability, T/C (second compound 1 µM, first compound 0.1 µM): 101%
- viability, T/C (second compound 1 µM, first compound 0.316 µM): 91.2%
- viability, T/C (second compound 1 µM, first compound 1 µM): 89.9%
- viability, T/C (second compound 1 µM, first compound 3.16 µM): 74.6%
- viability, T/C (second compound 1 µM, first compound 10 µM): 63.6%
- viability, T/C (second compound 3.16 µM, first compound 0.0316 µM): 112%
- viability, T/C (second compound 3.16 µM, first compound 0.1 µM): 104%
- viability, T/C (second compound 3.16 µM, first compound 0.316 µM): 93.8%
- viability, T/C (second compound 3.16 µM, first compound 1 µM): 85.1%
- viability, T/C (second compound 3.16 µM, first compound 3.16 µM): 78.1%
- viability, T/C (second compound 3.16 µM, first compound 10 µM): 53%
- viability, T/C (second compound 10 µM, first compound 0.0316 µM): 88.3%
- viability, T/C (second compound 10 µM, first compound 0.1 µM): 93.2%
- viability, T/C (second compound 10 µM, first compound 0.316 µM): 93.5%
- viability, T/C (second compound 10 µM, first compound 1 µM): 88.9%
- viability, T/C (second compound 10 µM, first compound 3.16 µM): 82.5%
- viability, T/C (second compound 10 µM, first compound 10 µM): 47.1%

From PubChem BioAssay AID1963978 (Molecular Pharmacology Branch, DTP, NCI, 2024)
